Activity calls are given as the source filed them.
Legend:
[1] = target: FAD-linked sulfhydryl oxidase ALR (Homo sapiens, UniProt P55789); test: inhibitors of human ALR sulfhydryl oxidase, dose response, biochemical, H2O2 detection, luminescence, cherry-pick (AID 493248)
[2] = Luminescence Cell-Based Dose Response HTS to Identify Activators of Luciferase Translation or Activity in H4 […] Cells. [Related pubchem assays: 1829 (Project Summary), 1814 (Primary HTS)]; type: functional
Cytochrome P450 2C19 = Cytochrome P450 2C19 (Homo sapiens, UniProt P33261); test: Cytochrome panel assay with activity outcomes. Panel member name: p450-cyp2c19 Compounds with AC50 equal or less than 10 uM are considered active; type: functional; details: read-out: AC50
Cytochrome P450 1A2 = target: T1, Cytochrome P450 1A2 (Homo sapiens, UniProt P05177);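 further: PubChem cytochrome P450 panel assay, CYP1A2 panel member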
T1 sequence (P05177 whole entry): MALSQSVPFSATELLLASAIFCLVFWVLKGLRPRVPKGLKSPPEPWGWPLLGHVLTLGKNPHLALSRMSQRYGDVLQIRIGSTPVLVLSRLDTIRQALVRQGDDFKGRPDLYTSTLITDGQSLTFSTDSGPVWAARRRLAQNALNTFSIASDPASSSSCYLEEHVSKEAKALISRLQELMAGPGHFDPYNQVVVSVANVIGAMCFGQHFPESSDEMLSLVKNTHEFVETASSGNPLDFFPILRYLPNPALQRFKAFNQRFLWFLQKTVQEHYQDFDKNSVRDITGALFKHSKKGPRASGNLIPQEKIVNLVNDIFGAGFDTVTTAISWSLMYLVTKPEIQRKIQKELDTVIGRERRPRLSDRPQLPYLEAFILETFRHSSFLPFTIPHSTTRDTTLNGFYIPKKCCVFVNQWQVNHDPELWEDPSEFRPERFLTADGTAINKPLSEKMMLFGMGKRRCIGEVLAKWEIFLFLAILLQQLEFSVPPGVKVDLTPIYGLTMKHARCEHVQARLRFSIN

[3] = Luminescence Cell-Based Dose Confirmation HTS to Identify Activators of 5'UTR Stem-Loop Driven Alpha-Synuclein mRNA Translation in H4 Neuroglioblastoma Cells. [Related pubchem assays: 1829 (Project Summary), 1814 (Primary HTS)]; type: functional
H4 = test: Luminescence Cell-Based Dose Response HTS to Identify Activators of 5'UTR Stem-Loop Driven Prion Protein mRNA Translation in H4 Neuroglioblastoma Cells. [Related pubchem assays: 1829 (Project Summary), 1814 (Primary HTS)]; type: functional; details: Homo sapiens
[4] = target: T2, Rac GTPase-activating protein 1 (Homo sapiens, UniProt Q9H0H5); test: MgcRacGAP GTPase-activating activity inhibitors, confirmation, biochemical, ADP Hunter fluorescence, primary and confirmatory (AID 624330); type: functional
T2 sequence (Q9H0H5 whole entry): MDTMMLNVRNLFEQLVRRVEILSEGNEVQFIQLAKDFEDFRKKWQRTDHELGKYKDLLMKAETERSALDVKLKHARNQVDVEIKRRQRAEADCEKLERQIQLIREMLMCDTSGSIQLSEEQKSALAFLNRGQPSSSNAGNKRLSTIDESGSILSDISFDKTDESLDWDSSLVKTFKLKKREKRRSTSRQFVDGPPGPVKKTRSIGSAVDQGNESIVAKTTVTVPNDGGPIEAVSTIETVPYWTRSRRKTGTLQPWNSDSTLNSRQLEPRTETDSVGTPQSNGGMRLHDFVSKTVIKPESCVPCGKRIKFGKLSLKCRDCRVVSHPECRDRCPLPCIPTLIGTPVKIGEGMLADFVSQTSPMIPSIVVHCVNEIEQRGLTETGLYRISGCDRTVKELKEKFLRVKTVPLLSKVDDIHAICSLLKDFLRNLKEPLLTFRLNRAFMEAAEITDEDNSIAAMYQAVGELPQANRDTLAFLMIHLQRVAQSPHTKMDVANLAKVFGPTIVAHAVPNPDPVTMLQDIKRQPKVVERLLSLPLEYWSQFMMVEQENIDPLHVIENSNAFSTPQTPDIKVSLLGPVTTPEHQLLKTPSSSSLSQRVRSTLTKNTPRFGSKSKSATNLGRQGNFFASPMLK

Streptococcus = test: Group A Streptococcus viability loss, dose response, counter-screen for streptokinase expression inhibitor project, luminescence, BacTiterGlo (AID 1915); type: functional, organism-based;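 further: potency for reduction of bacterial viability or growth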
Streptokinase A = target: T3, Streptokinase A (Streptococcus pyogenes serotype M1, UniProt P10520); test: S. pyogenes streptokinase expression inhibitors, potency, dose response, plasminogen activation absorbance, OD405 (AID 1914); type: functional, Streptococcus pyogenes M1 GAS;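 further: secreted streptokinase activity via plasminogen activation per viability signal from cell pellet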
T3 sequence (P10520 whole entry): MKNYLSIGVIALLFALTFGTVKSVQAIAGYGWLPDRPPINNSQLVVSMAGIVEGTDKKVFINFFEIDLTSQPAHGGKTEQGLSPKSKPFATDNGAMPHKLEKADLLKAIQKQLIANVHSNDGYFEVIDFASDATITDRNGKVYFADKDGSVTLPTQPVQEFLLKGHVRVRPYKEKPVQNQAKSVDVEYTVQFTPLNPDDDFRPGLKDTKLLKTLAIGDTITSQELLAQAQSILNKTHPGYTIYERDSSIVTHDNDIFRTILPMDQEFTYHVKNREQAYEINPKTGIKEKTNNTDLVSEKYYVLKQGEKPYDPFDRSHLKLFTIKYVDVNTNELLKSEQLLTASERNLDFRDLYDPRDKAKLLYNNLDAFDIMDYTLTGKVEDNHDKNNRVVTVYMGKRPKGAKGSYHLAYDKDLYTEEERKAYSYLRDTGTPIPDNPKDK

[5] = tested on: Streptococcus sp. 'group A'; test: growth inhibition of control SK(-) GAS strain, dose response, counter-screen for streptokinase expression inhibitor project, luminescence, kanamycin, BacTiterGlo, confirmation (AID 1900); type: functional, organism-based
[6] = target: T4, Heat shock factor protein 1 (Mus musculus, UniProt P38532); test: HSF1 potentiators in luciferase reporter cells, confirmation, cell-based, NIH3T3, luminescence, dose retest (AID 435004); type: functional;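 further: stress induced by proteasome inhibitor MG132 added 30 min after compound; luciferase reporter driven by HSF1 response element in NIH3T3 cells; actives raise luminescence as potentiators of the MG132 stress response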
T4 sequence (P38532 whole entry): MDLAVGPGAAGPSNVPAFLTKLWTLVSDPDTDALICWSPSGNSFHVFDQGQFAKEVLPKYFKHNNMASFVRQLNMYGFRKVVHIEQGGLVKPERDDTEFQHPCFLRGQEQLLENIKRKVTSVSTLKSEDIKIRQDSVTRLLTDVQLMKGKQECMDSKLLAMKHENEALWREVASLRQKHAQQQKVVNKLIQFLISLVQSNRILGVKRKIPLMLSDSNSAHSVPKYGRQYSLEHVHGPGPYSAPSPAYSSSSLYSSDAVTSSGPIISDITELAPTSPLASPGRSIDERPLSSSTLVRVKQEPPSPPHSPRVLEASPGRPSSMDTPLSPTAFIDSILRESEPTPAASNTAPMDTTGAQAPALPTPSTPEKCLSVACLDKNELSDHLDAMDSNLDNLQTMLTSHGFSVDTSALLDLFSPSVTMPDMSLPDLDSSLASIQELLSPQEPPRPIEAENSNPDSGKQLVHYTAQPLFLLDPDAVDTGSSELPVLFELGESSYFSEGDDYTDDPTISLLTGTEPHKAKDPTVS

Chain of FAD-linked sulfhydryl oxidase ALR (P55789 whole entry): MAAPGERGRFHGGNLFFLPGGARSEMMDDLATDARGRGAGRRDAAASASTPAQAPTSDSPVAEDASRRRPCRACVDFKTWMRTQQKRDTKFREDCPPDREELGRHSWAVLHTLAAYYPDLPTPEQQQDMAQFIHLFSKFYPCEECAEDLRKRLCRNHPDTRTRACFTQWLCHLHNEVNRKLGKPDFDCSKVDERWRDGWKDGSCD
Chain of Cytochrome P450 2C19 (P33261 whole entry): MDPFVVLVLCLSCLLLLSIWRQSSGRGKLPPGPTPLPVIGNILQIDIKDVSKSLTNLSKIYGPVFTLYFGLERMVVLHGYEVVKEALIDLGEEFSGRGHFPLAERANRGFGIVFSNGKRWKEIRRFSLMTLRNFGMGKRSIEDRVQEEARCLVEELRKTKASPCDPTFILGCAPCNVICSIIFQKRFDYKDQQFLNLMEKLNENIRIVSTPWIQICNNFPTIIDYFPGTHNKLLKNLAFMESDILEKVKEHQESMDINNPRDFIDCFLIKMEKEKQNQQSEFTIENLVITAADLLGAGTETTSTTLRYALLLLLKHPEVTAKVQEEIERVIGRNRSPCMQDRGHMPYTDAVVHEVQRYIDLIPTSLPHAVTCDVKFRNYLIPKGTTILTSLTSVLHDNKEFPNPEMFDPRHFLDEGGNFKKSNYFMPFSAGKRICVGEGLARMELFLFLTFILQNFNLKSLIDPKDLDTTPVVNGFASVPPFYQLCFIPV

| Structure (SMILES) | AC50 [1] | EC50 [2] | EC50 [3] | EC50 (H4) | other results |
| --- | --- | --- | --- | --- | --- |
| O=C(c1cccc(C(F)(F)F)c1)C1CCCN(C(=O)c2cc(C3CC3)[nH]n2)C1 (stereo not given) | 0.392 µM (active) |  |  |  |  |
| [O-]c1c[n+](-c2ccc(-[n+]3cc([O-])on3)cc2)no1 | 4.1 µM (active) |  |  |  |  |
| Cc1c(C(=O)O)c2cc(O)ccc2n1-c1ccccc1 | 5.18 µM (active) |  |  |  |  |
| CCc1ccc(CN(C(=O)c2cc3ccccc3oc2=O)C2CCS(=O)(=O)C2)cc1 (stereo not given) |  | 28.6 µM (active) | 27.7 µM (active) | 0.547 µM (active) | AC50 (Cytochrome P450 2C19): 20 µM (inconclusive); AC50 (Cytochrome P450 1A2): 28.2 µM (inconclusive) |
| Cn1cccc1/C=N/N1CCN(c2ccccc2)CC1 | 85.3 µM (active) |  |  |  | IC50 [4]: 84.2 µM (active) |
| c1ccc(-c2onc(-c3ccco3)c2-c2ccc3[nH]ccc3c2)cc1 |  | 63.1 µM (active) | 14.3 µM (active) | 23.7 µM (active) | EC50 (Streptococcus): 26.4 µM (active); EC50 (Streptokinase A): 4.99 µM (active); EC50 [5]: 3.19 µM (active) |
| CCC1(C(=O)O)NC(c2cc(OC)ccc2O)C2C(=O)N(Cc3ccccc3)C(=O)C21 (stereo not given) | 7.15 µM (active) |  |  |  |  |
| Cc1ccc(C)c(NC(=O)NNS(=O)(=O)c2ccc(C)c(C)c2)c1 | 3.8 µM (active) |  |  |  |  |
| CNC(C)C#Cc1ccc2sc3cc(OC)c(OC)cc3c(=O)c2c1 (stereo not given) |  | 15.3 µM (active) | 22.3 µM (active) | > 120 µM (not active) |  |
| CC(C)(C)OC(=O)NCc1nnc(S)n1C1CC1 | 5.46 µM (active) |  |  |  |  |
| O=C(COc1ccc(Br)cc1Br)NC(=O)NC1CCCC1 |  | 33.4 µM (active) | 8.14 µM (active) | > 120 µM (not active) |  |
| C=CCn1c(SCC(N)=O)nnc1-c1cc2c(s1)CCC(CC)C2 (stereo not given) |  | 27.7 µM (active) | 3 µM (active) | 5.64 µM (active) |  |
| Cc1ccc(-c2c3c(=O)n(C)c(=O)n(C)c3cn2-n2cnnc2)cc1 | 9.89 µM (active) |  |  |  | EC50 [6]: 13.5 µM (active) |
| CCCn1c2ccc(/C(C)=N\O)cc2c2cc(/C(C)=N/O)ccc21 | 0.028 µM (active) |  |  |  |  |
| CCN(CC)c1ccc(NS(=O)(=O)c2ccc(-c3ccc(O)nn3)o2)c(C)c1 | 0.382 µM (active) |  |  |  |  |
| CC1CCC(NC(=O)Cn2c(=O)[nH]c3ccsc3c2=O)CC1 (stereo not given) |  | 29.3 µM (active) | 12.4 µM (active) | 90.1 µM (active) |  |
| Cc1ccc2occ(C3N[C@H](C(=O)O)CS3)c(=O)c2c1 (stereo not given in full) | 0.392 µM (active) |  |  |  |  |
| Oc1ccccc1/C=N/Nc1ccccc1 | 7.86 µM (active) |  |  |  |  |
| COc1cccc(Oc2nnnn2-c2ccccc2)c1 |  | 54.7 µM (active) | 0.44 µM (active) | > 120 µM (not active) |  |
| O=C(NCC(=O)N1CCN(c2ccccc2O)CC1)c1ccco1 | 2.22 µM (active) |  |  |  |  |
| CCOc1ccc2nc(N3CCCC(C(=O)NCC4CCCO4)C3)sc2c1 (stereo not given) |  | 17.1 µM (active) | 17.5 µM (active) | 17.2 µM (active) |  |
| CCN(CC)C(=N)/C(C#N)=N/Nc1ccc(C)cc1 | 0.035 µM (active) |  |  |  |  |
